We go through seven compounds from US20260001928A1 (CORTERIA PHARMACEUTICALS, priority 2022, published 2026).

The nature of data set [1]: In vitro plasma stability, minipig plasma. The data set is classed as in vitro ADME. The arrangement: remaining at 2 h: dose or concentration left out as unconfirmed. To be noted: pig, plasma; Minipig PLM, 37° C.
Data set [2] can be described thus: In vitro plasma stability, rat plasma. The data set is classed as in vitro ADME. The arrangement: remaining at 2 h: dose or concentration left out as unconfirmed. To be noted: male, Sprague Dawley, plasma; Rat PLM, 37° C.
Description: (§1) In vitro plasma metabolic stability was studied in male Sprague Dawley rats and human. Test compounds were incubated at 3 M for 2 hours at 37° C. At each time point (0, 0.25, 1 and 2 h), samples were prepared for analysis by means of a single step protein precipitation technique by adding 150 μL of ethanol, 0.1% formic acid to 50 μL aliquots of plasma. Samples were mixed by vortex for homogeneity and then subjected to centrifugation at 14000 rpm for 15 min. The supernatant (100 μL) was collected, diluted with 100 μL of water, 0.1% formic acid and analyzed by LC-HRMS (TripleTOF 6600+, AB Sciex). For each test compound, the area ratios at each time point were compared to the 0 h area ratio and converted to a percentage remaining.
In the next data set the test system is Sprague Dawley rats. The data set is described as follows: Effect on systolic blood pressure, telemetry in Sprague Dawley rats. To be noted: 0.1 mg/kg SC; for Systolic blood pressure (Mean) % change from baseline, 8 h / Systolic blood pressure (Mean) % change from baseline, 12 h / Systolic blood pressure (Mean) % change from baseline, 24 h: n=2; for Duration of action: last time point with an effect on BP still observed. The data set is classed as in vivo, rat. Put shortly: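 Values are % change from a 1 h pre-dose baseline in systolic pressure, tracked by telemetry for up to 48 hours after a single 0.1 mg/kg subcutaneous dose. Rats (Sprague Dawley, n=2 per peptide) carried aortic catheters and recovered at least 10 days post-surgery; duration of action marks the last time point still showing an effect.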

Another data set has as its target T1, CFR1R receptor (Homo sapiens, UniProt P34998).
T1 construct: host or cells: CHO-K1 (clone 2)
T1 sequence (P34998 24-415): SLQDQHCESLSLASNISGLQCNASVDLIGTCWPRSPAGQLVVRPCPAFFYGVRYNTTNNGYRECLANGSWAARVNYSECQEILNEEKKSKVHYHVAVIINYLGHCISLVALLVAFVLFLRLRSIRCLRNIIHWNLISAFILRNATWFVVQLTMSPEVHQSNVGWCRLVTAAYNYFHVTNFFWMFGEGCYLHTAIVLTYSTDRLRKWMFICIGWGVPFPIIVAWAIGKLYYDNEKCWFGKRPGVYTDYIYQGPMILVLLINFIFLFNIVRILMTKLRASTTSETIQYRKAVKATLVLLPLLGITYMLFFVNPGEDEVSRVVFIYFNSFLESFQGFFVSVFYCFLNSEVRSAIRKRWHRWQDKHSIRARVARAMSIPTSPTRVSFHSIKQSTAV
Description: Activity at anti-target CFR1R receptor, cAMP assay in CRF1R-overexpression CHO-K1 cells. The data set is classed as cell-based. To be noted: 100% = Sauvagine at 100 nM; for EC50: cAMP. Put shortly:
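Grow clone 2 to near confluence at 37° C. under 5% CO2 in F12 (Hams) with 10% FBS and G418, harvest, and freeze in 10% DMSO. Thaw and plate at 4000 cells/well. Then proceed per the TeloHAEC method, normalising to Sauvagine 100 nM as maximum.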

Data set [3] is described as follows: In vitro plasma stability, human plasma. The data set is classed as in vitro ADME. More on the design: dose or concentration left out as unconfirmed. To be noted: Human PLM, 37° C.
Description: as §1
The target of another data set is T2, human CRF2a receptor (Homo sapiens, UniProt Q13324).
T2 construct: expressed in transfected cells; host or cells: TeloHEAC cells
T2 sequence (Q13324 1-411): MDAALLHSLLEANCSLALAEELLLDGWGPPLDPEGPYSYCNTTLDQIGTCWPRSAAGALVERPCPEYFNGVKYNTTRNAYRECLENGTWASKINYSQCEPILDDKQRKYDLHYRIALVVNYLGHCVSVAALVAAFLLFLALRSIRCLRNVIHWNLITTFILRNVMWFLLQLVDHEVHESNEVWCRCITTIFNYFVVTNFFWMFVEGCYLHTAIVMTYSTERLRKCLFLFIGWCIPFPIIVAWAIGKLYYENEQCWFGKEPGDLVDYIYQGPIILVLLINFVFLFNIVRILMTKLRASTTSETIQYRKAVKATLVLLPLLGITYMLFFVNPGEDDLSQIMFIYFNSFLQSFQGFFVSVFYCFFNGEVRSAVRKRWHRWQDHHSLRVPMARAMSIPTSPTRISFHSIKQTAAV
Description: Activity at human CRF2a receptor, cAMP functional assay in TeloHEAC cells. The data set is classed as cell-based. To be noted: TeloHEAC cells stably expressing human CRF2a receptor, relative to urocortin 2 (100 nM = 100%). Put shortly:
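cAMP accumulation was measured by HTRF 665/620 nm ratio after 30 min at 37° C compound exposure (16 twofold dilutions) of CRF2a-expressing TeloHEAC cells, 10000/well, in HEPES-buffered HBSS plus IBMX. Activity was normalised to urocortin 2 at 100 nM (100%), and EC50 was the concentration giving half-maximal activation.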

Data set [4] in a line: Chemical stability in buffer (pH 7.4 / pH 4.5), % purity loss. The data set is classed as physicochemical. To be noted: 40° C. vs 5° C., 14 or 28 days; for Buffer stability pH 7.4 % purity loss: 100 mM phosphate buffer pH 7.4. An outline of the steps: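 LC-UV gave % loss after 14 or 28 days of storage at 5 °C or 40 °C. Samples were diluted supernatants from compound incubated 1 h at room temperature at 10 mg/mL target, in 100 mM acetate pH 4.5 or 100 mM phosphate pH 7.4.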

A short description of data set [5]: In vitro subcutaneous tissue supernatant (SCts) stability and metabolite identification, rat. The data set is classed as in vitro ADME. The arrangement: remaining at 2 h: dose or concentration left out as unconfirmed. To be noted: male, Sprague Dawley; rat subcutaneous tissue supernatant (SCts), 37° C, 2 h.
The next data set can be described thus: Minipig PLM. To be noted: 37° C., up to 2 hours.
The next data set in a line: Human PLM. To be noted: 37° C., up to 2 hours.
The next data set is described as follows: Rat PLM. To be noted: male Sprague Dawley rats, 37° C., up to 2 hours.

The EC50 is the concentration that produces a half-maximal response.

*1 amine or outer side, *2 acyl side, *3 side chain or, on linkers, in order; H or OH if unused. Where a SMILES comes first, the peptide text is derived from it. Side-chain parts run from the residue outwards. [ ]: non-standard residue; d: D form. The star is where a group is joined. C18 diacid = O=C(O)CCCCCCCCCCCCCCCCC(=O)*; C16 diacid = O=C(O)CCCCCCCCCCCCCCC(=O)*; γGlu = O=C(O)[C@H](CCC(=O)[*:2])N[*:1]; Api = NC1(C(=O)O)CCNCC1; Aib = CC(C)(N)C(=O)O A value given as a limit tells only on which side of the number the result lay.

In the case of `CC[C@H](C)[C@H](NC(C)=O)C(=O)N[C@H](C(=O)N[C@@H](CC(C)C)C(=O)N[C@@H](CO)C(=O)N[C@@H](CC(C)C)C(=O)N[C@@H](CC(=O)O)C(=O)N[C@@H](C(=O)N1CCC[C@H]1C(=O)N[C@H](C(=O)N[C@@H](CCCCN)C(=O)N[C@@H](CC(C)C)C(=O)N[C@@H](CCCCNC(=O)CC[C@H](NC(=O)CCCCCCCCCCCCCCC(=O)O)C(=O)O)C(=O)N[C@@H](CCCCN)C(=O)N[C@H](C(=O)N[C@@H](CC(C)C)C(=O)N[C@@H](CC(C)C)C(=O)N[C@@H](CCC(=O)O)C(=O)N[C@@H](CCC(N)=O)C(=O)N[C@@H](CCC(=O)O)C(=O)N[C@@H](CCCCN)C(=O)N[C@@H](CCC(N)=O)C(=O)N[C@@H](CCCCN)C(=O)N[C@@H](CCCCN)C(=O)N[C@@H](CCC(N)=O)C(=O)N[C@@H](CCCNC(=N)N)C(=O)N[C@@H](CCC(=O)O)C(=O)N[C@@H](CCC(N)=O)C(=O)N[C@@H](C)C(=O)N[C@@H](CCC(=O)O)C(=O)N[C@H](C(=O)N[C@@H](CC(N)=O)C(=O)NC1(C(=O)N[C@@H](CCC(N)=O)C(=O)N[C@H](C(=O)N[C@@H](CC(C)C)C(=O)N[C@@H](C)C(=O)N[C@@H](CCC(N)=O)C(=O)N[C@H](C(N)=O)C(C)C)[C@@H](C)CC)CCNCC1)[C@@H](C)O)[C@@H](C)CC)[C@@H](C)CC)C(C)C)C(C)C` [compound 57] (Ac-IVLSLD[dV]PIKLK([γGlu-C16 diacid])KILLEQEKQKKQREQAETN[Api]QILAQV-NH2), the share remaining at 2 h in [1] came out at 81%. In addition, in data set [2], the share remaining at 2 h amounted to 96%. In the data set with Sprague Dawley rats, the “Systolic blood pressure (Mean) % change from baseline, 8 h” value is reported as −34%; the “Systolic blood pressure (Mean) % change from baseline, 12 h” value is listed as −25%; the “Systolic blood pressure (Mean) % change from baseline, 24 h” value was −2%; the Duration of action is recorded as >24 h. For the same compound, on CFR1R receptor, the “Emax (% I)” value worked out at 24 % I and the EC50 is > 250 nM. Also, the fraction remaining at 2 h in data set [3] is 104%. Moreover, the midpoint of the response at human CRF2a receptor, the EC50, lay at 0.39 nM. Further, the “Buffer stability pH 4.5 % purity loss” value in [4] (100 mM acetate buffer pH 4.5) is given as 0/0 ^ %. Besides, the “Buffer stability pH 7.4 % purity loss” value in data set [4] is on record as 0/0 ^ %.
For the compound `CC[C@H](C)[C@H](NC(C)=O)C(=O)N[C@H](C(=O)N[C@@H](CC(C)C)C(=O)N[C@@H](CO)C(=O)N[C@@H](CC(C)C)C(=O)N[C@@H](CC(=O)O)C(=O)N[C@@H](C(=O)N1CCC[C@H]1C(=O)N[C@H](C(=O)N[C@@H](CCCCN)C(=O)N[C@@H](CC(C)C)C(=O)N[C@@H](CCCCNC(=O)CC[C@H](NC(=O)CCCCCCCCCCCCCCCCC(=O)O)C(=O)O)C(=O)N[C@@H](CCCCN)C(=O)N[C@H](C(=O)N[C@@H](CC(C)C)C(=O)N[C@@H](CC(C)C)C(=O)N[C@@H](CCC(=O)O)C(=O)N[C@@H](CCC(N)=O)C(=O)N[C@@H](CCC(=O)O)C(=O)N[C@@H](CCCCN)C(=O)N[C@@H](CCC(N)=O)C(=O)N[C@@H](CCCCN)C(=O)N[C@@H](CCCCN)C(=O)N[C@@H](CCC(N)=O)C(=O)N[C@@H](CCCNC(=N)N)C(=O)N[C@@H](CCC(=O)O)C(=O)N[C@@H](CCC(N)=O)C(=O)N[C@@H](C)C(=O)N[C@@H](CCC(=O)O)C(=O)N[C@H](C(=O)N[C@@H](CC(N)=O)C(=O)NC(C)(C)C(=O)N[C@@H](CCC(N)=O)C(=O)N[C@H](C(=O)N[C@@H](CC(C)C)C(=O)N[C@@H](C)C(=O)N[C@@H](CCC(N)=O)C(=O)N[C@H](C(N)=O)C(C)C)[C@@H](C)CC)[C@@H](C)O)[C@@H](C)CC)[C@@H](C)CC)C(C)C)C(C)C` [compound 125] (Ac-IVLSLD[dV]PIKLK([γGlu-C18 diacid])KILLEQEKQKKQREQAETN[Aib]QILAQV-NH2), in data set [1], the amount remaining at 2 h came to 110%. Further, in [2], the share remaining at 2 h is 108%. For the same compound, in the data set with Sprague Dawley rats, the “Systolic blood pressure (Mean) % change from baseline, 8 h” value is −25%; the “Systolic blood pressure (Mean) % change from baseline, 12 h” value is −16%; the “Systolic blood pressure (Mean) % change from baseline, 24 h” value is 1%; the Duration of action came to 22 h. Also, at CFR1R receptor, the “Emax (% I)” value is recorded as 18 % I and the 50% effective concentration (EC50) was > 250 nM. Further, the amount remaining at 2 h in [5] stood at 79%. Moreover, the amount remaining at 2 h in data set [3] stood at 93%. On human CRF2a receptor, this compound came in with an EC50 of 0.15 nM. Besides, the “Buffer stability pH 7.4 % purity loss” value in data set [4] is 0/nd ^ %.
Take “Ac-IVLSLDvPIKLK*KILLEQEKQKKQREQAETNAbuQILAQV-NH2”: the results for the not cleaved in the data set “Minipig PLM” and in “Human PLM” were 97% remaining at 2 hours and 102% remaining at 2 hours, respectively.
In the case of “Ac-IVLSLDvPIKLK*KILLEQEKQKKQREQAETNAibQILAQV-NH2”, the not cleaved amounted to 110% remaining at 2 hours in the data set “Minipig PLM”, 93% remaining at 2 hours in the data set “Human PLM” and 108% remaining at 2 hours in the data set “Rat PLM”.
Regarding “Ac-IVLSLDvPIKαMELK*KILLEQEKQKKQREQAETNAibQILAQV-NH2”, the values for the not cleaved in the data set “Minipig PLM”, in the data set “Human PLM” and in the data set “Rat PLM” were 106% remaining at 2 hours, 97% remaining at 2 hours and 95% remaining at 2 hours, respectively.
The matching figures for “NMeIVLSLDvPIKLK*KILLEQEKQKKQREQAETNAibQILAQV-NH2”: 126% remaining at 2 hours, 91% remaining at 2 hours and 128% remaining at 2 hours.
The matching figures for “Pentanoyl-VLSLDvPIKLK*KILLEQEKQKKQREQAETNAibQILAQV-NH2”: 104% remaining at 2 hours, 101% remaining at 2 hours and 98% remaining at 2 hours.
